From patent publication US8642609B2, “Modulators of ATP-binding cassette transporters” (Vertex Pharmaceuticals Incorporated, priority 2003, dated 2014)

Target: T1, ΔF508-CFTR (Homo sapiens, UniProt P13569, DEL508-508)
T1 construct: expressed in transfected cells
Experiment: Membrane potential optical assay (FRET/VIPR), identification of correction compounds
Type: cell-based
Conditions: for Emax: relative efficacy
Procedure, shortened: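 Corrector screen: FRET voltage-sensor dyes (CC2-DMPE donor, DiSBAC2(3)) report Cl^− efflux-driven depolarization after 10 μM forskolin and 20 μM genistein in Cl^−-free medium. Beforehand, ΔF508-CFTR NIH3T3 fibroblasts received compound for 16 hrs at 37° C; temperature-corrected cells (27° C) served as positive control.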

T1 sequence (P13569 with tags, fused parts or gaps DEL508-508): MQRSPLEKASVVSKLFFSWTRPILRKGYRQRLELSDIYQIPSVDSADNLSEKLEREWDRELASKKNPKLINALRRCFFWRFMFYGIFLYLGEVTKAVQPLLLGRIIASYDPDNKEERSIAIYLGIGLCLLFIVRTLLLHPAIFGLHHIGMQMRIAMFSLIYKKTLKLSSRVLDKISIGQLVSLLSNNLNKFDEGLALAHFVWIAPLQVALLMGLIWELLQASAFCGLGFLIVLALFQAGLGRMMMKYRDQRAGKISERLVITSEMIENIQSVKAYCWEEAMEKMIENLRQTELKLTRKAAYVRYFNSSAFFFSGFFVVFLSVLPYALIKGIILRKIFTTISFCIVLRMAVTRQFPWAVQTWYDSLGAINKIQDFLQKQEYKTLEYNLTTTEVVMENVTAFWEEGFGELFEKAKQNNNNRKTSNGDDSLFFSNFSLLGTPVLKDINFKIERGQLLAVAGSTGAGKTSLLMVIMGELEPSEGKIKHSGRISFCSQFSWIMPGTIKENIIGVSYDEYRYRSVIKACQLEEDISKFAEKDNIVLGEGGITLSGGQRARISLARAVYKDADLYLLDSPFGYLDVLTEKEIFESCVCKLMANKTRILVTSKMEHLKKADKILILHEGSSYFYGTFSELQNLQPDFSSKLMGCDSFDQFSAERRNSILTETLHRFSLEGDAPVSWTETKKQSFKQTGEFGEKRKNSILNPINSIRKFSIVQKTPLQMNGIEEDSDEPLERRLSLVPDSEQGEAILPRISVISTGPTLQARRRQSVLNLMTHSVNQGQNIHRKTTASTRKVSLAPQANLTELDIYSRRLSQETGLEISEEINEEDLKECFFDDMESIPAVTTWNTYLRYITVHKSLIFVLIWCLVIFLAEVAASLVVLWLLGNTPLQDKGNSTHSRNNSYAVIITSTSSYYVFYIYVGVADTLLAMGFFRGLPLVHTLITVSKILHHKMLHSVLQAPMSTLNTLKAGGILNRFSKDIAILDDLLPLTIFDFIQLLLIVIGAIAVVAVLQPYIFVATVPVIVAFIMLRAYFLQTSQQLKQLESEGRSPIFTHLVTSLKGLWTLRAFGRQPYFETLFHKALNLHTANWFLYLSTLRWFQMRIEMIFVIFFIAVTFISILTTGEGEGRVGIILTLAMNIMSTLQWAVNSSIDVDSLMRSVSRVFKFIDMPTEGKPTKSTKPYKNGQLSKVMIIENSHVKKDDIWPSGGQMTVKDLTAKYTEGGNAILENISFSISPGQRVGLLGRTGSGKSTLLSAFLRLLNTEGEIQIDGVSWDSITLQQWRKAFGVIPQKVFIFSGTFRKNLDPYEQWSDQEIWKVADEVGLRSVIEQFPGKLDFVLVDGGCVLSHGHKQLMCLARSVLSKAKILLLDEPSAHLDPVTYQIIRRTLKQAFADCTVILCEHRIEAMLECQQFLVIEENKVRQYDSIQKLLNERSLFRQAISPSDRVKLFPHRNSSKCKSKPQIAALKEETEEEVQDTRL

Row | EC50 [µM] | Emax [%] | SMILES
1 | 10 to 25 | 25 to 100 | CC(c1nc2ccccc2c(=O)n1C)N1CCCN(S(=O)(=O)c2ccc(Cl)cc2)CC1 (stereo not shown) [compound 171]
2 | 25 to 60 | 25 to 100 | Cc1ccccc1S(=O)(=O)N1CCN(C(C)c2nc3ccccc3c(=O)n2C)CC1 (stereo not shown) [compound 69]
3 | 10 to 25 | 25 to 100 | Cc1ccc(S(=O)(=O)N2CCN(C(C)c3nc4ccc(S(C)(=O)=O)cc4c(=O)n3C)CC2)cc1 (stereo not shown) [compound 139]
4 | 10 to 25 | 25 to 100 | CC(c1nc2ccccc2c(=O)n1C)N1CCN(S(=O)(=O)c2ccc(OC(F)(F)F)cc2)CC1 (stereo not shown) [compound 50]
5 | 25 to 60 | < 25 | CC(c1nc2ccccc2c(=O)n1C)N1CCN(S(=O)(=O)c2cccc(C(=O)O)c2)CC1 (stereo not shown) [compound 246]
6 | 10 to 25 | 25 to 100 | CC(c1nc2ccc(Br)cc2c(=O)n1C)N1CCN(S(=O)(=O)c2ccc(Cl)cc2)CC1 (stereo not shown) [compound 117]
7 | 10 to 25 | 25 to 100 | CC(c1nc2ccc(C#N)cc2c(=O)n1C)N1CCN(S(=O)(=O)c2ccc(Cl)cc2)CC1 (stereo not shown) [compound 126]
8 | 25 to 60 | < 25 | CC(c1nc2ccccc2c(=O)n1C)N1CCN(S(=O)(=O)c2ccc(-c3cc(C(F)(F)F)n(C)n3)s2)CC1 (stereo not shown) [compound 275]
9 | 10 to 25 | 25 to 100 | COc1ccc(S(=O)(=O)N2CCN(C(C)c3nc4ccccc4c(=O)n3C)CC2)cc1 (stereo not shown) [compound 6]
10 | 25 to 60 | 25 to 100 | CC(c1nc2ccccc2c(=O)n1C)N1CCN(S(=O)(=O)c2ccc(F)cc2)CC1 (stereo not shown) [compound 10]
11 | 25 to 60 | < 25 | Cc1nn(C)c(Cl)c1S(=O)(=O)N1CCN(C(C)c2nc3ccccc3c(=O)n2C)CC1 (stereo not shown) [compound 257]
12 | 25 to 60 | < 25 | CC(c1nc2ccccc2c(=O)n1C)N1CCN(S(=O)(=O)c2ccc(S(=O)(=O)c3ccccc3)s2)CC1 (stereo not shown) [compound 265]
13 | < 10 | 25 to 100 | COc1ccc(S(=O)(=O)N2CCN(C(C)c3nc4ccc(Cl)cc4c(=O)n3C)CC2)cc1 (stereo not shown) [compound 62]
14 | 10 to 25 | 25 to 100 | C#Cc1ccc(S(=O)(=O)N2CCN(C(C)c3nc4ccccc4c(=O)n3C)CC2)cc1 (stereo not shown) [compound 354]
15 | 25 to 60 | 25 to 100 | COc1cc2nc(C(C)N3CCN(S(=O)(=O)c4ccc(C)cc4)CC3)n(C)c(=O)c2cc1OC (stereo not shown) [compound 286]
16 | 25 to 60 | < 25 | Cc1cccc(C(=O)N2CCN(C(C)c3nc4ccccc4c(=O)n3C)CC2)c1 (stereo not shown) [compound 57]
17 | 25 to 60 | < 25 | CC(c1nc2ccccc2c(=O)n1C)N1CCN(C(=O)c2cccc(Cl)c2)CC1 (stereo not shown) [compound 75]
18 | < 10 | 25 to 100 | CC(c1nc2ccc(Cl)cc2c(=O)n1C)N1CCN(S(=O)(=O)c2ccc(Br)cc2)CC1 (stereo not shown) [compound 42]
19 | 25 to 60 | < 25 | CCSc1ccc(S(=O)(=O)N2CCN(C(C)c3nc4ccccc4c(=O)n3C)CC2)cc1 (stereo not shown) [compound 351]
20 | 10 to 25 | 25 to 100 | COc1ccc(S(=O)(=O)N2CCN(C(C)c3nc4ccc(OC)cc4c(=O)n3C)CC2)cc1 (stereo not shown) [compound 135]
21 | < 10 | 25 to 100 | CC(c1nc2cc(Cl)ccc2c(=O)n1C)N1CCN(S(=O)(=O)c2cccc(Cl)c2)CC1 (stereo not shown) [compound 97]
22 | < 10 | 25 to 100 | CCc1ccc(S(=O)(=O)N2CCN(C(C)c3nc4ccccc4c(=O)n3C)CC2)cc1 (stereo not shown) [compound 329]
23 | 25 to 60 | < 25 | CC(c1nc2ccccc2c(=O)n1C)N1CCN(S(=O)(=O)c2cccc3cnccc23)CC1 (stereo not shown) [compound 251]
24 | 10 to 25 | 25 to 100 | Cc1ccccc1S(=O)(=O)N1CCN(C(C)c2nc3cc(Cl)ccc3c(=O)n2C)CC1 (stereo not shown) [compound 109]
25 | 25 to 60 | < 25 | CC(c1nc2ccccc2c(=O)n1C)N1CCN(S(=O)(=O)c2ccc(Oc3ccccc3)nc2)CC1 (stereo not shown) [compound 267]
26 | < 10 | > 100 | COCCn1c(C(C)N2CCN(S(=O)(=O)c3ccc(Br)cc3)CC2)nc2ccccc2c1=O (stereo not shown) [compound 5]

The remaining lines, values behind:

Row | SMILES | EC50 [µM] | Emax [%]
27 | CC(NCCN(C)S(=O)(=O)c1ccc(Br)cc1)c1nc2ccccc2c(=O)n1C (stereo not shown) [compound 213] | 25 to 60 | < 25
28 | CCCOc1nc(C(C)N2CCN(S(=O)(=O)c3ccc(OC)cc3)CC2)nc2ccccc12 (stereo not shown) [compound 189] | 10 to 25 | > 100
29 | COc1ccc(S(=O)(=O)N2CCN(C(C)c3nc(Oc4ccncc4)c4ccccc4n3)CC2)cc1 (stereo not shown) [compound 297] | < 10 | 25 to 100
30 | CCCC(c1nc(N2CCCCC2)c2ccccc2n1)N1CCN(S(=O)(=O)c2ccc(OC)cc2)CC1 (stereo not shown) [compound 339] | < 10 | > 100
31 | CC(NCCN)c1nc2ccccc2c(=O)n1C (stereo not shown) [compound 181] | 25 to 60 | < 25
32 | COc1ccc(S(=O)(=O)N2CCN(C(C)c3nc(N4CC=CCC4)c4ccccc4n3)CC2)cc1 (stereo not shown) [compound 392] | < 10 | > 100
33 | COc1ccc(S(=O)(=O)N2CCN(C(C)c3nc(N4CCC[C@@H]4C(=O)O)c4ccccc4n3)CC2)cc1 (stereo partly shown) [compound 324] | 25 to 60 | < 25
34 | Cc1ccc(S(=O)(=O)N2CCN(C(C)c3nc4ccccc4c(=O)[nH]3)CC2)cc1 (stereo not shown) [compound 129] | 10 to 25 | < 25
35 | COc1ccc(S(=O)(=O)N2CCN(C(C)c3ncc(C(=O)O)c(N4CCCCC4)n3)CC2)cc1 (stereo not shown) [compound 355] | 25 to 60 | < 25
36 | Cn1c(CN2CCN(S(=O)(=O)c3ccccc3)CC2)nc2ccc(Cl)cc2c1=O [compound 65] | 10 to 25 | < 25
37 | COc1ccc(S(=O)(=O)N(C[C@@H]2CCCCN2S(=O)(=O)c2ccc(OC)cc2)C(C)c2nc3ccccc3c(=O)n2C)cc1 (stereo partly shown) [compound 203] | 25 to 60 | < 25
38 | COc1ccc(S(=O)(=O)N(C)CCNC(C)c2nc3ccccc3c(=O)n2C)cc1 (stereo not shown) [compound 211] | 25 to 60 | < 25
39 | CC(NC[C@@H]1CCCCN1S(=O)(=O)c1ccc(Cl)cc1)c1nc2ccccc2c(=O)n1C (stereo partly shown) [compound 214] | 25 to 60 | < 25
40 | CC(c1nc2ccc(Cl)cc2c(=O)n1C)N1CCN(C(=O)c2ccccc2Cl)CC1 (stereo not shown) [compound 39] | 25 to 60 | 25 to 100
41 | CC(c1nc2ccc(Cl)cc2c(=O)n1C)N1CCN(C(=O)c2ccc(C(F)(F)F)cc2)CC1 (stereo not shown) [compound 78] | 10 to 25 | < 25
42 | Cc1ccc(C(=O)N2CCN(C(C)c3cc4ccc(Cl)cc4c(=O)n3C)CC2)cc1 (stereo not shown) [compound 58] | 10 to 25 | < 25
43 | CC(Nc1ccc(NS(=O)(=O)c2ccc(Cl)cc2)cc1)c1nc2ccccc2c(=O)n1C (stereo not shown) [compound 308] | < 10 | 25 to 100
44 | CC(c1nc2ccccc2c(=O)n1C)N1CCC(NS(=O)(=O)c2ccc(Cl)cc2)C1 (stereo not shown) [compound 162] | 25 to 60 | < 25
45 | CCN(CC)c1nc(C(C)N2CCN(S(=O)(=O)c3ccc(Cl)cc3)CC2)nc2ccccc12 (stereo not shown) [compound 235] | < 10 | 25 to 100

Row | SMILES | EC50 [µM] | Emax [%]
46 | CC(c1nc(N(C)C)c2ccccc2n1)N1CCN(S(=O)(=O)c2ccc(Cl)cc2)CC1 (stereo not shown) [compound 233] | 25 to 60 | 25 to 100
47 | COc1ccc(S(=O)(=O)N2CCN(C(C)c3nc(OCCN4CCCC4)c4ccccc4n3)CC2)cc1 (stereo not shown) [compound 299] | 10 to 25 | 25 to 100
48 | COc1ccc(S(=O)(=O)N2CCN(C(C)c3nccc(N4CCCCC4)n3)CC2)cc1 (stereo not shown) [compound 360] | 25 to 60 | 25 to 100
49 | CC(c1nc2ccccc2c(=O)n1C)N1CC2CC1CN2S(=O)(=O)c1ccc(Cl)cc1 (stereo not shown) [compound 176] | 25 to 60 | 25 to 100
50 | COc1ccc(S(=O)(=O)N2CCN(C(C)c3nc(OC(C)C)c4ccccc4n3)CC2)cc1 (stereo not shown) [compound 190] | < 10 | > 100
51 | Cn1c(CN2CCN(S(=O)(=O)c3ccc(Br)cc3)CC2)nc2ccc(Cl)cc2c1=O [compound 84] | 25 to 60 | < 25
52 | COc1ccc(C(=O)N2CCN(C(C)c3nc4ccccc4c(=O)n3C)CC2)cc1OC (stereo not shown) [compound 76] | 10 to 25 | < 25
53 | COc1ccc(S(=O)(=O)N2CCN(C(C)c3nc4cc(OC)c(OC)cc4c(=O)n3C)CC2)cc1 (stereo not shown) [compound 285] | 25 to 60 | 25 to 100
54 | CC(c1nc2ccccc2c(=O)n1C)N(CCN(C)S(=O)(=O)c1ccc(Br)cc1)S(=O)(=O)c1ccc(Br)cc1 (stereo not shown) [compound 202] | 25 to 60 | < 25
55 | CC(c1nc2ccccc2c(=O)[nH]1)N1CCN(S(=O)(=O)c2ccccc2)CC1 (stereo not shown) [compound 128] | 10 to 25 | < 25
56 | COc1ccc(S(=O)(=O)N2CCN(C(C)c3ncc(C(N)=O)c(N4CCCCC4)n3)CC2)cc1 (stereo not shown) [compound 356] | 25 to 60 | 25 to 100
57 | CCc1nc2ccc(Cl)cc2c(=O)n1C [compound 88] | 25 to 60 | < 25
58 | COc1ccc(S(=O)(=O)N2CCN(C(C)c3nc(N4CCN(C(C)=O)CC4)c4ccccc4n3)CC2)cc1 (stereo not shown) [compound 369] | 25 to 60 | 25 to 100
59 | CC(Nc1ccc(NS(=O)(=O)c2ccc(Br)cc2)cc1)c1nc2ccccc2c(=O)n1C (stereo not shown) [compound 309] | < 10 | 25 to 100
60 | COc1ccc(S(=O)(=O)NCCNC(C)c2nc3ccccc3c(=O)n2C)cc1 (stereo not shown) [compound 167] | 25 to 60 | < 25
61 | CCC(c1nc(N2CCCCC2)c2ccccc2n1)N1CCN(S(=O)(=O)c2ccc(OC)cc2)CC1 (stereo not shown) [compound 336] | < 10 | > 100
62 | CC(NC[C@@H]1CCCCN1)c1nc2ccccc2c(=O)n1C (stereo partly shown) [compound 183] | 25 to 60 | –
63 | CCCn1c(C(C)N2CCN(C(=O)CSc3ccccc3)CC2)nc2ccccc2c1=O (stereo not shown) [compound 46] | 25 to 60 | 25 to 100
64 | CC(c1nc(OC2CCCC2)c2ccccc2n1)N1CCN(S(=O)(=O)c2ccc(Br)cc2)CC1 (stereo not shown) [compound 218] | < 10 | > 100
